Here are results for 19 compounds from patent publication US6544773B1, “Microbial process for degradation of PCBS in clophen A-50 using a novel marine microorganism, Pseudomonas CH07” (priority 2001, dated 2003).

The subject of series [1] is Pseudomonas CH07. In words: Degradation of PCB congeners of Clophen A-50 by Pseudomonas CH07 in seawater nutrient broth, GC-ECD analysis. The conditions noted are these: for Degradation Of PCBs: 40 hrs incubation with Pseudomonas CH07, versus control; for Conc. of PCBs in Test sol. (incubation) 40 hrs.: incubation with Pseudomonas CH07 for 40 hrs, Clophen A-50 100 ppm in seawater nutrient broth. As for the experimental part: A defined seawater nutrient broth medium (code no. 088 from Himedia, Bombay) containing beef extract 3 g L^−1, peptic digest of animal tissue 5 g L^−1 was used. One liter of medium contained 500 ml seawater and 500 ml distilled water and the final pH was adjusted to 7 using 0.1 N NaOH. After autoclaving, the required amount of stock solution (10,000 ppm) of Clophen A-50 was added to the medium in sterile condition to achieve a final concentration of 100 ppm. Immediately after adding the stock PCBs solution, the hexane part of it was evaporated out by gently swirling the flask in sterile condition and sterile glycerol was added to the medium in a 1:1 ratio of stock solution:glycerol. 40 μl of 24 hold culture of Pseudomonas CH07 growths was added in two replicates of 20 ml of test (seawater nutrient broth+Clophen A-50) medium to seawater nutrient broth (without any addition of Clophen A-50). Controls in duplicate were also maintained without the addition of the organism at room temperature (ca. 28°±2° C.). Control and test cultures were maintained at room temperature for two days and at various predecided intervals of time, the samples was taken out aseptically and prepared for GC analysis. The details of the sample preparation is described below.
The PCBs were analyzed following the method described by Boon et al. The method was standardized in our laboratory using the PCBs standards obtained from Promochem, Germany as well as other analytical grade chemicals from E. Merck. The purity of the solvents was checked by Gas chromatography for each of the bottles. The different adsorbents, alumina, silica, were purified by soxhlet extraction with di-chloro-methane (HPLC grade) for about eight hours. The anhydrous Na2SO4 and the glass wool were also purified by Soxhlet extraction with HPLC grade di-chloro methane. The different steps of the analytical methods are illustrated below:
i. Aliquot of 1 ml sample was treated with 1 ml n-hexane (HPLC grade) thrice and thoroughly mixed by a vortex mixture for five minutes each time. The upper part of the solvent layer (solvent extract) was separated with the help of micropipette and transferred to a sterilized glass tube.
ii. Concentrate the solvent extract to 1 ml by evaporation with Snyder column evaporator on a water bath at 85° C.
iii. Purify of the solvent extract by alumina clean up using micro-column technique.
iv. Concentrate the solvent extract to 1 ml by evaporation with Snyder column evaporator on a water bath at 85° C.
v. Isolate PCBs from polar chlorinated compounds by eluting through micro-column of silica.
vi. Concentrate the PCBs fraction to 1 ml by evaporation with Snyder column evaporator on a water bath at 85° C.
vii. Analyze the aliquot by GC-ECD with reference to standard PCBs (individual congeners).
The samples were analyzed by gas chromatography (Varian GC-3380) coupled with an electron capture detector and an autosampler 8200. Capillary column VA-5 (30 m×0.25 mm) was employed with electron capture detector […] for peak detection. Argon with 5% methane was the carrier gas. A temperature program was used (table. 3). […] The experimental condition of the instrument is illustrated in the table-4. The analysis of PCBs was calibrated using the standards for individual congeners of PCBs obtained from Promochem, Germany. Using different dilutions of the stock solution of the standards carried out the calibration of each of the individual congeners. The linearity of the calibration curve was determined with a range of dilution of the mix-standards.

For series [2], the system named is Pseudomonas CH07. In words: Taxonomical characteristics: growth of Pseudomonas CH07 on antibiotics. The conditions noted are these: Table 1, taxonomical tests. Also noted: key: −: negative response (no growth); +: positive response (slight or moderate growth); ++: very good response (good growth). It counts as cell-based.

As to `Clc1ccc(-c2ccc(Cl)c(Cl)c2)cc1Cl` [CB-77, 3,3′,4,4′-tetrachlorobiphenyl], in series [1], the “Degradation Of PCBs” value is listed as 24.25% and the “Conc. of PCBs in Test sol. (incubation) 40 hrs.” value (shortened to “Conc. of PCBs”) was 40.42 ng/mL.
With `Clc1cc(Cl)c(-c2cccc(Cl)c2Cl)cc1Cl` [CB-97, 2,2′,3′,4,5-Pentachloro], the “Degradation Of PCBs” value in series [1] was determined as 19.69%.
Still for that read-out and setting: with `Clc1ccc(Cl)c(-c2cc(Cl)c(Cl)cc2Cl)c1` [CB-101, 2,2′,4,5,5′-Pentachloro] the figure was 20.19%.
The same measure, in the same setting: with `Clc1ccc(-c2ccc(Cl)c(Cl)c2Cl)cc1Cl` [CB-105, 2,3,3′,4,4′-Pentachloro] the figure was 46.69%.
In the case of `Clc1c(Cl)c(Cl)c(-c2ccccc2)c(Cl)c1Cl` [CB-116, 2,3,4,5,6-Pentachloro], in series [1], the “Degradation Of PCBs” value is reported as 20.04% and the “Conc. of PCBs” value is 8.06 ng/mL.
For `Clc1ccc(-c2cc(Cl)c(Cl)cc2Cl)cc1Cl` [CB-118, 2,3′,4,4′,5-Pentachloro], the “Degradation Of PCBs” value in series [1] is reported as 40.72%.
Regarding `Clc1cc(Cl)c(-c2ccc(Cl)c(Cl)c2)c(Cl)c1` [CB-119, 2,3′,4,4′,6-Pentachloro], in series [1], the “Degradation Of PCBs” value is reported as 19.66% and the “Conc. of PCBs” value turned out to be 6.48 ng/mL.
Taken in the same sequence, the figures for `Clc1ccc(-c2cc(Cl)c(Cl)c(Cl)c2)cc1Cl` [CB-126, 3,3′,4,4′,5-Pentachloro] were 100% and 00.00 ng/mL.
Consider `Clc1ccc(-c2ccc(Cl)c(Cl)c2Cl)c(Cl)c1Cl` [CB-128, 2,2′,3,3′,4,4′-Hexachloro], for which the “Degradation Of PCBs” value in series [1] was 64.33%.
On to `Clc1cc(Cl)c(-c2ccc(Cl)c(Cl)c2Cl)cc1Cl` [CB-138, 2,2′,3,4,4′,5′-Hexachloro], for which the “Degradation Of PCBs” value in series [1] is recorded as 55.97%.
Still for that read-out and setting: with `Clc1ccc(Cl)c(-c2cc(Cl)c(Cl)c(Cl)c2Cl)c1` [CB-141, 2,2′,3,4,5,5′-Hexachloro] the figure was 55.38%; with `Clc1ccc(Cl)c(-c2c(Cl)c(Cl)cc(Cl)c2Cl)c1` [CB-151, 2,2′,3,5,5′,6-Hexachloro], 37.32%; with `Clc1cc(Cl)c(-c2cc(Cl)c(Cl)c(Cl)c2Cl)cc1Cl` [CB-180, 2,2′,3,4,4′,5,5′-Heptachloro], 61.33%.
`Clc1ccc(-c2c(Cl)c(Cl)c(Cl)c(Cl)c2Cl)c(Cl)c1` [CB-181, 2,2′,3,4,4′,5,6-Heptachloro]: the “Degradation Of PCBs” value in series [1] amounted to 100%.
Turning to `CN(C)[C@@H]1C(O)=C(C(N)=O)C(=O)[C@@]2(O)C(O)=C3C(=O)c4c(O)ccc(Cl)c4[C@@H](O)[C@H]3C[C@@H]12` [Demechlocyclin], the “Growth on (Response)” value in series [2] was “++”.
Still for that read-out and setting: with `NC[C@H]1O[C@H](O[C@H]2[C@H](O)[C@@H](O[C@H]3O[C@H](CO)[C@@H](O)[C@H](N)[C@H]3O)[C@H](N)C[C@@H]2N)[C@H](O)[C@@H](O)[C@@H]1O` [Kanamycin] the entry was “++”; with `[H]/N=C(/N)N[C@H]1[C@H](O)[C@@H](O)[C@H](O[C@@H]2O[C@@H](C)[C@](O)(C=O)[C@H]2O[C@@H]2O[C@@H](CO)[C@H](O)[C@@H](O)[C@@H]2NC)[C@@H](N/C(N)=N\[H])[C@@H]1O` [Streptomycin], “++”.
Take `CN(C)[C@@H]1C(O)=C(C(N)=O)C(=O)[C@@]2(O)C(O)=C3C(=O)c4c(O)cccc4[C@@](C)(O)[C@H]3C[C@@H]12` [Tetracycline]: the “Growth on (Response)” value in series [2] is “++”.
Take Neomycin: in series [2], the “Growth on (Response)” value is reported as “++”.
